Values of other authors, collected in PubChem BioAssay AID1259409 (Chemical Carcinogenesis Research Information System (CCRIS), 2018).

Test system: rodent chemically induced tumor inhibition, incidence and multiplicity
Assay: CCRIS tumor inhibitor studies
Settings: Route [Inhibitor]: ORAL, Species: HAMSTER, Promoter: NONE USED

Question: For `CCNC(=O)/C=C(C)/C=C/C=C(C)/C=C/C1=C(C)CCCC1(C)C`, which “tumour outcome (control, treated, inhibition, significance)” value (Carcinogen: N-NITROBIS(2-OXOPROPYL)AMINE, 60559-38-4, Dose [Inhibitor]: 0.5 OR 1.0 MMOL/KG DIET DAILY STARTING 1 WK AFTER CARCINOGEN TREATMENT AND CONTINUING THROUGH THE END OF THE STUDY (STUD, Strain/Sex: SYRIAN/MALE, Target Tissue: Type of Lesion: ND: TOTAL TUMOR, Dose [Carcinogen]: 40 MG/KG BW SINGLE ONCE) is on record?
Answer: Its value is 20/24 (83%), 37/40 (90%), -8%, not significant.

Question: And the “tumour outcome (control, treated, inhibition, significance)” value (Carcinogen: N-NITROBIS(2-OXOPROPYL)AMINE, 60559-38-4, Dose [Inhibitor]: 0.5 OR 1.0 MMOL/KG DIET DAILY STARTING 1 WK AFTER CARCINOGEN TREATMENT AND CONTINUING THROUGH THE END OF THE STUDY (STUD, Strain/Sex: SYRIAN/MALE, Target Tissue: Type of Lesion: PANCREAS: DUCTULAR ADENOMA, Dose [Carcinogen]: 10 MG/KG BW ONCE)?
Answer: Its value is 3/22 (14%), 16/30 (53%), -279%, p<0.05.

Question: What about the “tumour outcome (control, treated, inhibition, significance)” value (Carcinogen: N-NITROBIS(2-OXOPROPYL)AMINE, 60559-38-4, Dose [Inhibitor]: 0.5 OR 1.0 MMOL/KG DIET DAILY STARTING 1 WK AFTER CARCINOGEN TREATMENT AND CONTINUING THROUGH THE END OF THE STUDY (STUD, Strain/Sex: SYRIAN/MALE, Target Tissue: Type of Lesion: PANCREAS: DUCTULAR ADENOMA, Dose [Carcinogen]: 40 MG/KG BW ONCE) of the same compound?
Answer: Its value is 8/24 (33%), 33/40 (82%), -148%, not significant.

Question: What about the “tumour outcome (control, treated, inhibition, significance)” value (Carcinogen: N-NITROBIS(2-OXOPROPYL)AMINE, 60559-38-4, Dose [Inhibitor]: 0.5 OR 1.0 MMOL/KG DIET DAILY STARTING 1 WK AFTER CARCINOGEN TREATMENT AND CONTINUING THROUGH THE END OF THE STUDY (STUD, Strain/Sex: SYRIAN/MALE, Target Tissue: Type of Lesion: PANCREAS: DUCTULAR CARCINOMA, Dose [Carcinogen]: 10 MG/KG BW ONCE) of the same compound?
Answer: The value was 4/22 (18%), 10/30 (33%), -83%, not significant.

Question: What about the “tumour outcome (control, treated, inhibition, significance)” value (Carcinogen: N-NITROBIS(2-OXOPROPYL)AMINE, 60559-38-4, Dose [Inhibitor]: 0.5 OR 1.0 MMOL/KG DIET DAILY STARTING 1 WK AFTER CARCINOGEN TREATMENT AND CONTINUING THROUGH THE END OF THE STUDY (STUD, Strain/Sex: SYRIAN/MALE, Target Tissue: Type of Lesion: PANCREAS: DUCTULAR CARCINOMA, Dose [Carcinogen]: 40 MG/KG BW ONCE) of the same compound?
Answer: Its value is 5/24 (21%), 20/40 (50%), -138%, not significant.

Question: What about the “tumour outcome (control, treated, inhibition, significance)” value (Carcinogen: N-NITROBIS(2-OXOPROPYL)AMINE, 60559-38-4, Dose [Inhibitor]: 0.5 OR 1.0 MMOL/KG IN DIET STARTING 1 WK AFTER CARCINOGEN DOSE FOR DURATION OF STUDY (STUDY DURATION: 40 WK), Strain/Sex: SYRIAN/FEMALE, Target Tissue: Type of Lesion: LIVER: BENIGN TUMOR, Dose [Carcinogen]: 40 MG/KG BW SINGLE INJECTION) of the same compound?
Answer: The value was 4/20 (20%), 17/37 (46%), -130%, not significant.

Question: And the “tumour outcome (control, treated, inhibition, significance)” value (Carcinogen: N-NITROBIS(2-OXOPROPYL)AMINE, 60559-38-4, Dose [Inhibitor]: 0.5 OR 1.0 MMOL/KG IN DIET STARTING 1 WK AFTER CARCINOGEN DOSE FOR DURATION OF STUDY (STUDY DURATION: 40 WK), Strain/Sex: SYRIAN/MALE, Target Tissue: Type of Lesion: LIVER: BENIGN TUMOR, Dose [Carcinogen]: 40 MG/KG BW SINGLE INJECTION)?
Answer: The value was 5/24 (21%), 25/41 (62%), -195%, p<0.05.

Question: What about the “tumour outcome (control, treated, inhibition, significance)” value (Carcinogen: N-NITROBIS(2-OXOPROPYL)AMINE, 60559-38-4, Dose [Inhibitor]: 0.5 OR 1.0 MMOL/KG/D IN DIET STARTING 1 WK AFTER CARCINOGEN TREATMENT AND CONTINUING THROUGH THE END OF THE STUDY (STUDY, Strain/Sex: SYRIAN/FEMALE, Target Tissue: Type of Lesion: PANCREAS: DUCTULAR ADENOMA, Dose [Carcinogen]: 10 MG/KG BW ONCE) of the same compound?
Answer: The value was 5/23 (23%), 13/25 (52%), -126%, not significant.

Question: What about the “tumour outcome (control, treated, inhibition, significance)” value (Carcinogen: N-NITROBIS(2-OXOPROPYL)AMINE, 60559-38-4, Dose [Inhibitor]: 0.5 OR 1.0 MMOL/KG/D IN DIET STARTING 1 WK AFTER CARCINOGEN TREATMENT AND CONTINUING THROUGH THE END OF THE STUDY (STUDY, Strain/Sex: SYRIAN/FEMALE, Target Tissue: Type of Lesion: PANCREAS: DUCTULAR ADENOMA, Dose [Carcinogen]: 40 MG/KG BW ONCE) of the same compound?
Answer: The value was 12/20 (60%), 27/37 (73%), -22%, not significant.

Question: And the “tumour outcome (control, treated, inhibition, significance)” value (Carcinogen: N-NITROBIS(2-OXOPROPYL)AMINE, 60559-38-4, Dose [Inhibitor]: 0.5 OR 1.0 MMOL/KG/D IN DIET STARTING 1 WK AFTER CARCINOGEN TREATMENT AND CONTINUING THROUGH THE END OF THE STUDY (STUDY, Strain/Sex: SYRIAN/FEMALE, Target Tissue: Type of Lesion: PANCREAS: DUCTULAR CARCINOMA, Dose [Carcinogen]: 10 MG/KG BW ONCE)?
Answer: The value was 6/23 (27%), 6/25 (24%), 11%, not significant.

Question: And the “tumour outcome (control, treated, inhibition, significance)” value (Carcinogen: N-NITROBIS(2-OXOPROPYL)AMINE, 60559-38-4, Dose [Inhibitor]: 0.5 OR 1.0 MMOL/KG/D IN DIET STARTING 1 WK AFTER CARCINOGEN TREATMENT AND CONTINUING THROUGH THE END OF THE STUDY (STUDY, Strain/Sex: SYRIAN/MALE, Target Tissue: Type of Lesion: PANCREAS: DUCTULAR ADENOMA, Dose [Carcinogen]: 10 MG/KG BW ONCE)?
Answer: Its value is 3/22 (14%), 16/30 (53%), -279%, p<0.05.

Question: What about the “tumour outcome (control, treated, inhibition, significance)” value (Carcinogen: N-NITROBIS(2-OXOPROPYL)AMINE, 60559-38-4, Dose [Inhibitor]: 0.5 OR 1.0 MMOL/KG/D IN DIET STARTING 1 WK AFTER CARCINOGEN TREATMENT AND CONTINUING THROUGH THE END OF THE STUDY (STUDY, Strain/Sex: SYRIAN/MALE, Target Tissue: Type of Lesion: PANCREAS: DUCTULAR ADENOMA, Dose [Carcinogen]: 40 MG/KG BW ONCE) of the same compound?
Answer: The value was 8/24 (33%), 33/40 (82%), -148%, not significant.

Question: And the “tumour outcome (control, treated, inhibition, significance)” value (Carcinogen: N-NITROBIS(2-OXOPROPYL)AMINE, 60559-38-4, Dose [Inhibitor]: 0.5 OR 1.0 MMOL/KG/D IN DIET STARTING 1 WK AFTER CARCINOGEN TREATMENT AND CONTINUING THROUGH THE END OF THE STUDY (STUDY, Strain/Sex: SYRIAN/MALE, Target Tissue: Type of Lesion: PANCREAS: DUCTULAR CARCINOMA, Dose [Carcinogen]: 10 MG/KG BW ONCE)?
Answer: Its value is 4/22 (18%), 10/30 (33%), -83%, not significant.

Question: And the “tumour outcome (control, treated, inhibition, significance)” value (Carcinogen: N-NITROBIS(2-OXOPROPYL)AMINE, 60559-38-4, Dose [Inhibitor]: 0.5 OR 1.0 MMOL/KG/D IN DIET STARTING 1 WK AFTER CARCINOGEN TREATMENT AND CONTINUING THROUGH THE END OF THE STUDY (STUDY, Strain/Sex: SYRIAN/MALE, Target Tissue: Type of Lesion: PANCREAS: DUCTULAR CARCINOMA, Dose [Carcinogen]: 40 MG/KG BW ONCE)?
Answer: Its value is 5/24 (21%), 20/40 (50%), -138%, not significant.

Question: What about the “tumour outcome (control, treated, inhibition, significance)” value (Carcinogen: N-NITROBIS(2-OXOPROPYL)AMINE, 60599-38-4, Dose [Inhibitor]: 0.5 OR 1 MMOL/KG DIET DAILY STARTING 1 WK AFTER CARCINOGEN TREATMENT AND CONTINUING THROUGH THE END OF THE STUDY (STUDY, Strain/Sex: SYRIAN/FEMALE, Target Tissue: Type of Lesion: PANCREAS: DUCTULAR CARCINOMA, Dose [Carcinogen]: 40 MG/KG BW ONCE) of the same compound?
Answer: Its value is 6/20 (30%), 16/37 (43%), -43%, not significant.

Question: What about the “tumour outcome (control, treated, inhibition, significance)” value (Carcinogen: N-NITROBIS(2-OXOPROPYL)AMINE, 60599-38-4, Dose [Inhibitor]: 0.5 OR 1.0 MMOL/KG/D IN DIET STARTING 1 WK AFTER CARCINOGEN TREATMENT AND CONTINUING THROUGH THE END OF THE STUDY (STUDY, Strain/Sex: SYRIAN/FEMALE, Target Tissue: Type of Lesion: PANCREAS: DUCTULAR CARCINOMA, Dose [Carcinogen]: 40 MG/KG BW ONCE) of the same compound?
Answer: Its value is 6/20 (30%), 16/37 (43%), -43%, not significant.

Question: And the “tumour outcome (control, treated, inhibition, significance)” value (Carcinogen: N-NITROSOBIS(2-OXYPROPYL)AMINE, 60599-38-4, Dose [Inhibitor]: 0.05, 0.1 OR 0.2 MILLIMOLAR/KG DIET FOR 32 WK STARTING 1 WK AFTER THE CARCINOGEN DOSE (STUDY DURATION: 33 WK), Strain/Sex: SYRIAN/FEMALE, Target Tissue: Type of Lesion: COMMON DUCT: ADENOMA, Dose [Carcinogen]: 40 MG/KG ONCE)?
Answer: The value was 4/10 (40%), 7/26 (32%), 20%, not significant.
